# Data taken from patent US11000033B2, “Ketone or oxime compound, and herbicide” (NISSAN CHEMICAL CORPORATION, priority 2014, dated 2021).
# Experiments:
# Format in all cases: in vivo
# soybean = experiment: Test Example 5: effect on crop by foliage application, plastic box (symbol d); settings: 320 g/ha, 3 weeks after application
# Summary of the method: (§1)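 Diluvial soil, sterilized and boxed (21 × 13 × 7 cm), received spot-sown seed covered by about 1.5 cm soil; plants were then greenhouse-grown at 25–30° C.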
# rice plant = experiment: Test Example 5: effect on crop by foliage application, plastic box (symbol b); settings: 320 g/ha, 3 weeks after application
# Summary of the method: as §1
# Digitaria ciliaris [1] = experiment: Test Example 4: herbicidal effect by soil treatment (symbol F); settings: 320 g/ha
# Summary of the method: (§2)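 Seeds were sown in sterilized diluvial soil, covered with about 1.5 cm of soil, and the soil surface was sprayed with a water-diluted emulsion of the compound at a predetermined rate. Plants grew in a greenhouse at 25° C. to 30° C.; effects were scored visually 3 weeks after application.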
# beet [2] = experiment: Test Example 4: effect on crop by soil treatment (symbol f); settings: 320 g/ha
# Summary of the method: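 Seeds were sown in spots on sterilized diluvial soil in a plastic box and covered with about 1.5 cm of soil. Plants were then grown in a greenhouse at 25° C. to 30° C.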
# Veronica persica [3] = experiment: Test Example 5: herbicidal effect by foliage application, plastic box (symbol R); settings: 320 g/ha, 3 weeks after application
# Summary of the method: (§3)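 After sowing into sterilized diluvial soil and growing two weeks under glass at 25° C. to 30° C., seedlings receive a uniform foliar spray of diluted emulsion. Damage is judged visually three weeks on.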
# Abutilon theophrasti [4] = experiment: Test Example 4: herbicidal effect by soil treatment (symbol M); settings: 320 g/ha
# Summary of the method: as §2
# Avena fatua = experiment: Test Example 4: herbicidal effect by soil treatment (symbol I); settings: 320 g/ha
# Summary of the method: as §2
# [5] = system: Echinochloa crus-galli var. crus-galli; experiment: Test Example 3: herbicidal effect by foliage application, Wagner pot (symbol H); settings: application herbicide amount 320 g/ha
# Summary of the method: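 Rating at 3 weeks post-spray, by defined criteria. Treatment: emulsion diluted with water to a predetermined amount, applied evenly to foliage of 14-day-old plants raised in alluvial soil flooded 0.1–0.5 cm deep at 25–30 °C, rice co-sown.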
# beet [6] = experiment: Test Example 5: effect on crop by foliage application, plastic box (symbol f); settings: 320 g/ha, 3 weeks after application
# Summary of the method: as §1
# Veronica persica [7] = experiment: Test Example 4: herbicidal effect by soil treatment (symbol R); settings: 320 g/ha
# Summary of the method: as §2
# Digitaria ciliaris [8] = experiment: Test Example 5: herbicidal effect by foliage application, plastic box (symbol F); settings: 320 g/ha, 3 weeks after application
# Summary of the method: as §3
# Abutilon theophrasti [9] = experiment: Test Example 5: herbicidal effect by foliage application, plastic box (symbol M); settings: 320 g/ha, 3 weeks after application
# Summary of the method: as §3
# Alopecurus myosuroides = experiment: Test Example 4: herbicidal effect by soil treatment (symbol J); settings: 320 g/ha
# Summary of the method: as §2
# Apera spica-venti = experiment: Test Example 5: herbicidal effect by foliage application, plastic box (symbol L); settings: 320 g/ha, 3 weeks after application
# Summary of the method: as §3
# [10] = system: Echinochloa oryzacola Vasing.; experiment: Test Example 2: herbicidal activity, application during weed generation in submerged conditions (symbol A); settings: Table 23; application herbicide amount 320 g/ha; grade 0-5 by criteria of Test Example 1
# Summary of the method: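 Flooded-soil post-emergence test: emulsion of compound, water-diluted to target rate, applied to paddy water surface at 1–2 leaf stage of mixed-sown weeds (alluvial soil, 4 cm water, 25–30° C. greenhouse); visual rating 3 weeks after application.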
# Amaranthus retroflexus = experiment: Test Example 5: herbicidal effect by foliage application, plastic box (symbol N); settings: 320 g/ha, 3 weeks after application
# Summary of the method: as §3
SMILES,"d: soybean, effect on crop (criteria 0-5) (soybean)","b: directly sowed rice plant, effect on crop (criteria 0-5) (rice plant)","F: Digitaria ciliaris, herbicidal effect grade (Digitaria ciliaris [1])","f: beet, effect grade on crop (beet [2])","R: Veronica persica, herbicidal effect (criteria 0-5) (Veronica persica [3])","M: Abutilon theophrasti, herbicidal effect grade (Abutilon theophrasti [4])","I: Avena fatua, herbicidal effect grade (Avena fatua)","herbicidal effect on H (Echinochloa crus-galli var. crus-galli), grade 0-5 [5]","f: beet, effect on crop (criteria 0-5) (beet [6])","R: Veronica persica, herbicidal effect grade (Veronica persica [7])","F: Digitaria ciliaris, herbicidal effect (criteria 0-5) (Digitaria ciliaris [8])","M: Abutilon theophrasti, herbicidal effect (criteria 0-5) (Abutilon theophrasti [9])","J: Alopecurus myosuroides, herbicidal effect grade (Alopecurus myosuroides)","L: Apera spica-venti, herbicidal effect (criteria 0-5) (Apera spica-venti)","Herbicidal effect grade, A: Echinochloa oryzacola Vasing. [10]","N: Amaranthus retroflexus, herbicidal effect (criteria 0-5) (Amaranthus retroflexus)"
CON=C(C)CC1CC(OC(=O)COc2ccc(C=O)cc2)=C(c2c(C)cc(C)cc2C)C1=O (stereo not shown) [1-079],4 (Herbicidal ratio of 70% or higher and lower than 90%),5 (Herbicidal ratio of 90% or more (almost completely withered)),5 (Herbicidal ratio of 90% or more (almost completely withered)),0 (Herbicidal ratio of 5% or lower (almost no effect)),3 (Herbicidal ratio of 40% or higher and lower than 70%),5 (Herbicidal ratio of 90% or more (almost completely withered)),3 (Herbicidal ratio of 40% or higher and lower than 70%),5 (Herbicidal ratio of 90% or more (almost completely withered)),0 (Herbicidal ratio of 5% or lower (almost no effect)),0 (Herbicidal ratio of 5% or lower (almost no effect)),5 (Herbicidal ratio of 90% or more (almost completely withered)),4 (Herbicidal ratio of 70% or higher and lower than 90%),5 (Herbicidal ratio of 90% or more (almost completely withered)),5 (Herbicidal ratio of 90% or more (almost completely withered)),5 (Herbicidal ratio of 90% or more (almost completely withered)),0 (Herbicidal ratio of 5% or lower (almost no effect))
CON=C(C)CC1CC(OC(=O)COc2ccc(C(C)=O)cc2)=C(c2c(C)cc(C)cc2C)C1=O (stereo not shown) [1-080],4 (Herbicidal ratio of 70% or higher and lower than 90%),5 (Herbicidal ratio of 90% or more (almost completely withered)),5 (Herbicidal ratio of 90% or more (almost completely withered)),0 (Herbicidal ratio of 5% or lower (almost no effect)),1 (Herbicidal ratio of 5% or higher and lower than 20%),4 (Herbicidal ratio of 70% or higher and lower than 90%),3 (Herbicidal ratio of 40% or higher and lower than 70%),5 (Herbicidal ratio of 90% or more (almost completely withered)),0 (Herbicidal ratio of 5% or lower (almost no effect)),0 (Herbicidal ratio of 5% or lower (almost no effect)),5 (Herbicidal ratio of 90% or more (almost completely withered)),4 (Herbicidal ratio of 70% or higher and lower than 90%),5 (Herbicidal ratio of 90% or more (almost completely withered)),5 (Herbicidal ratio of 90% or more (almost completely withered)),4 (Herbicidal ratio of 70% or higher and lower than 90%),0 (Herbicidal ratio of 5% or lower (almost no effect))
CON=C(C)CC1CC(OC(=O)COc2ccc(Br)cc2)=C(c2c(C)cc(C)cc2C)C1=O (stereo not shown) [1-081],5 (Herbicidal ratio of 90% or more (almost completely withered)),5 (Herbicidal ratio of 90% or more (almost completely withered)),5 (Herbicidal ratio of 90% or more (almost completely withered)),0 (Herbicidal ratio of 5% or lower (almost no effect)),0 (Herbicidal ratio of 5% or lower (almost no effect)),4 (Herbicidal ratio of 70% or higher and lower than 90%),3 (Herbicidal ratio of 40% or higher and lower than 70%),5 (Herbicidal ratio of 90% or more (almost completely withered)),0 (Herbicidal ratio of 5% or lower (almost no effect)),0 (Herbicidal ratio of 5% or lower (almost no effect)),5 (Herbicidal ratio of 90% or more (almost completely withered)),4 (Herbicidal ratio of 70% or higher and lower than 90%),5 (Herbicidal ratio of 90% or more (almost completely withered)),5 (Herbicidal ratio of 90% or more (almost completely withered)),5 (Herbicidal ratio of 90% or more (almost completely withered)),5 (Herbicidal ratio of 90% or more (almost completely withered))
CON=C(C)CC1CC(OC(=O)COc2ccc(I)cc2)=C(c2c(C)cc(C)cc2C)C1=O (stereo not shown) [1-082],4 (Herbicidal ratio of 70% or higher and lower than 90%),5 (Herbicidal ratio of 90% or more (almost completely withered)),5 (Herbicidal ratio of 90% or more (almost completely withered)),0 (Herbicidal ratio of 5% or lower (almost no effect)),0 (Herbicidal ratio of 5% or lower (almost no effect)),5 (Herbicidal ratio of 90% or more (almost completely withered)),3 (Herbicidal ratio of 40% or higher and lower than 70%),5 (Herbicidal ratio of 90% or more (almost completely withered)),0 (Herbicidal ratio of 5% or lower (almost no effect)),0 (Herbicidal ratio of 5% or lower (almost no effect)),5 (Herbicidal ratio of 90% or more (almost completely withered)),4 (Herbicidal ratio of 70% or higher and lower than 90%),5 (Herbicidal ratio of 90% or more (almost completely withered)),5 (Herbicidal ratio of 90% or more (almost completely withered)),5 (Herbicidal ratio of 90% or more (almost completely withered)),0 (Herbicidal ratio of 5% or lower (almost no effect))
